{
  "source": "patent US20080254117A1",
  "about": "“PROCESS FOR PREPARING PRAMIPEXOLE DIHYDROCHLORIDE TABLETS” (priority 2007, published 2008)",
  "origin": "cited, not measured here",
  "key": {"[1]": {"assay": "not given", "remark": "listed apart in the source"}},
  "note": "Structures can show the parent of a compound that is named as a salt.",
  "data": [
    {"smiles": "CCCN[C@H]1CCc2nc(N)sc2C1", "note": "[Pramipexole dihydrochloride monohydrate, pramipexole dihydrochloride monohydrate]", "values": [
      {"measurement": "solubility in buffer media", "setting": "between pH 2 and pH 7.4", "value": "above 10 mg/mL"},
      {"measurement": "Water solubility", "setting": "water", "value": "more than 20 mg/mL"}
    ]},
    {"smiles": "CCCN[C@H]1CCc2nc(N)sc2C1", "note": "[Pramipexole, (S)-2-amino-4,5,6,7-tetrahydro-6-(propylamino)benzothiazole]", "values": [
      {"measurement": "light sensitivity in solution", "setting": "[1]; in solution", "value": "light sensitive"},
      {"measurement": "stability in the solid state", "setting": "[1]; solid state", "value": "very stable in the solid state"}
    ]}
  ]
}
